Assay results as given in patent US20080103198A1, “METHODS FOR TREATMENT OF COCHLEAR AND VESTIBULAR DISORDERS” (priority 2006, published 2008).

Assays:
Li-pilo induced SE = assay: Lithium-pilocarpine model of temporal lobe epilepsy (Example 1): mortality and spontaneous recurrent seizures; assay type: in vivo, rat
Excerpt: The model induced in rats by pilocarpine associated with lithium (Li-Pilo) reproduces most of the clinical and neurophysiological features of human temporal lobe epilepsy (Turski et al., 1989, Synapse 3:154-171; Cavalheiro, 1995, Ital J Neurol Sci 16:33-37). In adult rats, the systemic administration of pilocarpine leads to status epilepticus (SE). The lethality rate reaches 30-50% during the first days. In the surviving animals, neuronal damage predominates within the hippocampal formation, the piriform and entorhinal cortices, thalamus, amygdaloid complex, neocortex and substantia nigra.
Male Wistar rats weighing 225-250 g, provided by Janvier Breeding Center (Le Genest-St-lste, France) were housed under controlled standard conditions (light/dark cycle, 7.00 a.m.-7.00 p.m. lights on), with food and water available ad libitum. All animal experimentation was performed in accordance with the rules of the European Communities Council Directive of Nov. 24, 1986 (86/609/EEC), and the French Department of Agriculture (License No 67-97). For electrode implantation, rats were anesthetized by an i.p. injection of 2.5 mg/kg diazepam (DZP, Valium, Roche, France) and […] ketamine chlorhydrate (Imalgene 1000, Rhone Merrieux, France). Four single-contact recording electrodes were placed on the skull, over the parietal cortex, two on each side.
All rats received lithium chloride (3 meq/kg, i.p., Sigma, St Louis, Mo., U.S.A.); about 20 h later, animals were placed into plexiglas boxes, in order to record baseline cortical EEG. Methylscopolamine bromide (1 mg/kg, s.c., Sigma) was administered to limit the peripheral effects of the convulsant. SE was induced by injecting pilocarpine hydrochloride (25 mg/kg, s.c., Sigma) 30 min after methyl-scopolamine. The bilateral EEG cortical activity was recorded during the whole duration of SE and behavioral changes were noted.
The effects of increasing doses of the test compound were studied on 3 groups of rats. The animals of the first group received 10 mg/kg of the test compound, i.p., 1 h after the onset of SE (pilo-test10) while the animals of groups 2 and 3 received 30 and 60 mg/kg of the test compound (pilo-test30 and pilo-test60), respectively.
Another group was injected with 2 mg/kg diazepam (DZP, i.m.) at 1 h after the onset of SE which are our standard treatment to improve animals survival after SE (pilo-DZP). The control group received saline instead of pilocarpine and the test compound (saline-saline). The pilo-test compound rats surviving SE were then injected about 10 h after the first test compound injection with a second i.p. injection of the same dose of the test compound and were maintained under a twice daily treatment with the test compound for 6 additional days. Pilo-DZP received a second injection of 1 mg/kg DZP on the day of SE at about 10 h after the first one. Thereafter, Pilo-DZP and saline-saline rats received twice daily an equivalent volume of saline.
The effects of the test compound on the EEG and on the latency to occurrence of SRS were investigated by daily video recording of the animals for 10 h per day and the recording of the electrographic activity twice a week for 8 h.
For the comparison of the characteristics of SE in pilo-saline and pilo-test compound animals, a non-paired Student's t-test was used. The comparison between the number of rats seizing in both groups was performed by means of a Chi square test. For neuronal damage, statistical analysis between groups was performed using ANOVA followed by a Fisher's test for multiple comparisons using the Statview software (Fisher R A, 1946a, Statistical Methods for Research Workers (10th edition) Oliver & Boyd, Edinburgh; Fisher R A, 1946b, The Design of Experiments (4th edition) Oliver & Boyd, Edinburgh) Behavioral and EEG characteristics of lithium-pitocarpine status epilepticus

Li-Pilo SE = assay: Lithium-pilocarpine model (Example 2): quantification of cell densities; assay type: in vivo, rat
Description: Quantification of cell densities was performed at two times after SE: a first group was studied 14 days after SE and was composed by 7 DZP, 8 RWJ30, 11 RWJ60, 10 RWJ90, 8 RWJ120 and 8 control rats not subjected to SE. A second group used for the study of the latency to SRS was sacrificed either 8 weeks after the first SRS or at 5 months when no SRS could be seen in that delay and was composed by 7 DZP, 2 RWJ30, 3 RWJ60, 3 RWJ90, 4 RWJ120 rats. Animals were deeply anesthetized with 1.8 g/kg pentobarbital (Dolethal®, Vétoquinol, Lure, France). Brains were then removed and frozen. Serial 20 μm slices were cut in a cryostat, air-dried during several days before thionine staining. Quantification of cell densities was performed with a 10×10 boxes 1 cm^2 microscopic grid on coronal sections according to the stereotaxic coordinates of the rat brain atlas (Paxinos and Watson, 1986, The Rat Brain in Stereotaxic coordinates, 2nd ed. Academic Press, San Diego). The grid of counting was placed on a well-defined area of the cerebral structure of interest and counting was carried out with a microscopic enlargement of 200- or 400-fold defined for each single cerebral structure. Cell counts were performed twice on each side of three adjacent sections for each region by a single observer unaware of the animal's treatment. The number of cells obtained in the 12 counted fields in each cerebral structure was averaged. This procedure was used to minimize the potential errors that could result from double counting leading to overestimation of cell numbers. […] Counts involved only neurons with cell bodies larger than 10 μm. Cells with small cell bodies were considered as glial cells and were not counted.
For neuronal damage, statistical analysis between groups was performed by means of a one-way analysis of variance followed by a post-hoc Scheffe's test using the Statview software.

[1] = 14 days after SE, DZP 2.5 mg/kg i.m., mean ± S.E.M.
[2] = DZP vs control rats, 14 days after SE

CN1C(=O)CN=C(c2ccccc2)c2cc(Cl)ccc21 [DZP, diazepam, reference compound]
mortality during the first 48 h after SE (Li-pilo induced SE; DZP 2 mg/kg i.m. 1 h after SE onset): 23%
latency to SRS (Li-pilo induced SE; DZP 2 mg/kg i.m., n=9): 18.2 ± 6.9 days
frequency of stage IV-V SRS (Li-pilo induced SE; DZP, first week): 11.3 SRS per week
number of neuronal cell bodies, Dorsal entorhinal, layer II (Li-Pilo SE; [1]): 23.5 ± 0.7
number of neuronal cell bodies, Dorsal entorhinal, layer III (Li-Pilo SE; [1]): 22.3 ± 0.5
number of neuronal cell bodies, Piriform, layer II, dorsal (Li-Pilo SE; [1]): 12.6 ± 4.2
number of neuronal cell bodies, Piriform, layer II, ventral (Li-Pilo SE; [1]): 3.6 ± 0.7
number of neuronal cell bodies, Piriform, layer III (Li-Pilo SE; [1]): 1.2 ± 1.2
number of neuronal cell bodies, Ventral entorhinal, layer II (Li-Pilo SE; [1]): 21.7 ± 1.3
number of neuronal cell bodies, Ventral entorhinal, layers III-IV (Li-Pilo SE; [1]): 7.7 ± 2.3
number of neuronal cell bodies, hippocampus CA1 area (Li-Pilo SE; [1]): 10.9 ± 1.9
number of neuronal cell bodies, hippocampus CA3 area (Li-Pilo SE; [1]): 31.3 ± 2.9
number of neuronal cell bodies, hippocampus Hilus (Li-Pilo SE; [1]): 33.5 ± 3.0
damage, entorhinal cortex dorsal layers II and III/IV and ventral layer II (Li-Pilo SE; DZP group): 18-24%
cell loss, CA1 pyramidal cell layer (Li-Pilo SE; [2]): 85%
cell loss, CA3 (Li-Pilo SE; [2]): 40%
cell loss, hilus of dentate gyrus (Li-Pilo SE; [2]): 66%
cell loss, piriform cortex dorsal layer II (Li-Pilo SE; [2]): 66%
cell loss, piriform cortex layer III (Li-Pilo SE; [2]): 94%
cell loss, piriform cortex ventral layer II (Li-Pilo SE; [2]): 89%
damage, dorsal entorhinal cortex layer II (Li-Pilo SE; [2]): 18%
damage, dorsal entorhinal cortex layers III-IV (Li-Pilo SE; [2]): 24%
damage, ventral entorhinal cortex layer II (Li-Pilo SE; [2]): 22%
damage, ventral entorhinal cortex layers III/IV (Li-Pilo SE; [2]): 74%
